# Assay: Dynamic Vapor Sorption (DVS) with PXRD of the material after DVS
# Format: physicochemical
# Experimental: DVS analysis was conducted using a TA Instruments TGA Q5000 SA. DVS was run at 25 degrees C. The sample was pre-dried at 25 degrees C. and 0% relative humidity (% RH) until the dm/dt was 0.01% for up to 300 minutes. Adsorption and desorption isotherms were measured by ramping the humidity from 0% RH to 90% RH to 0% RH at 10% RH step intervals with a stability criterion of dm/dt=0.01% or 300 minutes unless otherwise noted. Data analysis was performed using Universal Analysis 2000 Version 4.5 A.
SMILES,"water (DVS weight gain) (25 degrees C, first cycle, up to 50% RH)","solid form after DVS (PXRD pattern) (after two cycle DVS, 0% RH to 90% RH to 0% RH, 25 degrees C)",relative stability of HCl salt solid forms (conclusion based on the DVS experiment)
"CCOC1(c2cccc(C(N)=O)c2)C2CCCC1CNC2.Cl [hydrochloride Form D, 3-((1R,5S,9r-9-ethoxy-3-azabicyclo-[3.3.1]nonan-9-yl)-benzamide hydrochloride]",approximately 0.5%,consistent with hydrochloride Form B,–
"CCOC1(c2cccc(C(N)=O)c2)C2CCCC1CNC2.Cl [hydrochloride Form B, 3-((1R,5S,9r-9-ethoxy-3-azabicyclo-[3.3.1]nonan-9-yl)-benzamide hydrochloride]",–,–,most stable HCl salt solid form

# From patent US20210238177A1, “CRYSTALLINE FORMS OF 3-((1R,5S,9r)-9-ETHOXY-3-AZABICYCLO[3.3.1]NONAN-9-YL)-BENZAMIDE AND SALT FORMS THEREOF” (Alkermes, Inc., priority 2020, published 2021)
